Series [1] is described as follows: HILIC, Waters ACQUITY UPLC BEH Amide, 150 × 2.1 mm, 1.7 µm, 40 °C, 0.5 mL/min, estimated dead time 0.66 min; A: 5% water + 95% acetonitrile; B: 70% water + 30% acetonitrile + 10 mM ammonium formate, pH 6.5; gradient (min/%B) 0/0 2/0 20/70 23/70 24/0 31/0. To be noted: stereoisomer not certain.
Series [2] is described as follows: HILIC, Merck SeQuant ZIC-pHILIC, 150 × 2.1 mm, 5 µm, 40 °C, 0.3 mL/min, estimated dead time 1.1 min; A: acetonitrile; B: water + 2.8 mM ammonium formate, pH 9; gradient (min/%B) 0/5 1/5 10/51 13/51 13.1/5 20/5. To be noted: stereoisomer not certain.

The structures appear in SMILES notation.

In the case of `Cn1cnc(=N)c2[nH]cnc21` [3-METHYLADENINE], in series [1], the LC retention time was 5.66 min. The same measure, in the same setting: as for `CCCCC(=O)[O-]` [PENTANOATE], the figure is 8.25 min. On the same count and under the same terms, next, `NC(CO)Cc1cnc[nH]1` (stereo not drawn) [HISTIDINOL]: 9.82 min; `NCCCCC(=O)O` [5-AMINOPENTANOATE]: 10.4 min. `OCC1OC(OC2C(CO)OC(O)C(O)C2O)C(O)C(O)C1O` (stereo not drawn) [CELLOBIOSE]: the LC retention time in series [1] was 10.9 min. Still for that read-out and setting: next, `C[n+]1cccc(C(N)=O)c1` [1-METHYLNICOTINAMIDE]: 8.27 min; `C[C@H](N)C(=O)O` [L-ALANINE]: 9.76 min. Still for that read-out and setting: as for `NCCCCN=C(N)N.O=S(=O)(O)O` [AGMATINE SULFATE], the figure is 14 min. The same measure, in the same setting: as for `CC12CCC(O)CC1CCC1C2C(O)CC2(C)C1CCC2(O)C(=O)CO` (stereo not drawn), the figure is 0.99 min; as for `CCCCCCCCCCCCCCCC(=O)OCC(COP(=O)(O)OCCN)OC(=O)CCCCCCCCCCCCCCC` (stereo not drawn) [DIPALMITOYL-PHOSPHOETHANOLAMINE], 4.45 min; as for `NCCCCN` [PUTRESCINE], 0.94 min.

Regarding `Cn1cncc1CCN` [3-METHYLHISTAMINE], the LC retention time in series [1] is 9.57 min. Regarding `NCCc1ccccc1` [PHENETHYLAMINE], the LC retention time in series [1] was 7 min.

`NC1C(O)OC(CO)C(O)C1O` (stereo not drawn) [GLUCOSAMINE]: in series [1], the LC retention time was 11.3 min.

On to `COC(=O)CC(C)=O` [METHYL ACETOACETATE], for which the LC retention time in series [1] is 1.63 min. Turning to `OCC(O)C(O)CO` (stereo not drawn) [ERYTHRITOL], the LC retention time in series [1] was 3.99 min. On the same count and under the same terms, next, `CCCCCCCCCCCCCCCC(=O)OC(CC(=O)[O-])C[N+](C)(C)C` (stereo not drawn) [PALMITOYLCARNITINE]: 5.9 min. The same measure, in the same setting: as for `C[N+](C)(C)CCCC(=O)[O-]` [DEOXYCARNITINE], the figure is 10.8 min; as for `NCCC(=O)O` [BETA-ALANINE], 10.4 min; as for `OCCNCCO` [DIETHANOLAMINE], 8.78 min. Consider `CCCCCCCCCCCC(=O)OC(CC(=O)[O-])C[N+](C)(C)C` (stereo not drawn) [LAUROYLCARNITINE], for which the LC retention time in series [1] is 6.24 min. Same read-out and setting: as for `CCCC(=O)[O-]` [BUTANOATE], the figure is 1.29 min; as for `CN1CCCC1c1cccnc1` (stereo not drawn) [NICOTINE], 2.9 min; as for `C[N+](C)(C)CCO` [CHOLINE], 7.51 min. The same measure, in the same setting: as for `CN=C(N)N` [METHYLGUANIDINE], the figure is 8 min. The same measure, in the same setting: as for `Nc1ccnc(=O)[nH]1` [CYTOSINE], the figure is 5.15 min. With `COC(=O)CCCC(=O)O` [MONOMETHYLGLUTARATE], in series [1], the LC retention time is 2.48 min. The same measure, in the same setting: next, `COc1ccccc1O` [GUAIACOL]: 0.89 min; `CC(=O)OCC[N+](C)(C)C` [ACETYLCHOLINE]: 6.38 min. With `CCOC(=O)CC(=O)[O-]` [MONOETHYLMALONATE], the LC retention time in series [2] is 6.48 min. Same read-out and setting: as for `CC(C)(COP(=O)(O)OP(=O)(O)OCC1OC(n2cnc3c(N)ncnc32)C(O)C1OP(=O)(O)O)C(O)C(=O)NCCC(=O)NCCS` (stereo not drawn) [COENZYME A], the figure is 9.12 min; as for `CCCCCCCCC(=O)[O-]` [NONANOATE], 5.16 min; as for `O=C(O)CC(C(=O)O)C(O)C(=O)O` (stereo not drawn) [ISOCITRATE], 10.5 min.

On to `O=C(O)c1ccccc1O` [SALICYLATE], for which the LC retention time in series [2] is 1.91 min. Consider `CC(=O)NC(CCCCN)C(=O)O` (stereo not drawn) [N-ALPHA-ACETYLLYSINE], for which the LC retention time in series [2] is 8.76 min. Take `NC(=O)C=CC(=O)O` [MALEAMATE]: the LC retention time in series [1] is 2.1 min.

For `CNCCc1c[nH]c2ccccc12` [N-METHYLTRYPTAMINE], the LC retention time in series [1] is 6.64 min.

For the compound `O=P(O)(O)OCC1OC(O)C(O)C1O` [D-RIBOSE 5-PHOSPHATE], in series [2], the LC retention time is 9.19 min. `NCC(O)c1ccccc1` (stereo not drawn) [PHENYLETHANOLAMINE]: in series [1], the LC retention time is 7.74 min. On the same count and under the same terms, as for `C[N+](C)(C)CC(=O)[O-]` [BETAINE], the figure is 7.63 min. Regarding `Nc1ccn(C2CC(O)C(COP(=O)([O-])OP(=O)([O-])[O-])O2)c(=O)n1` (stereo not drawn) [DEOXYCYTIDINE-DIPHOSPHATE], the LC retention time in series [2] was 9.8 min. Turning to `O=C(O)CCC(=O)C(=O)O` [OXOGLUTARATE], the LC retention time in series [2] is 9.21 min.

For the compound `CCCCCC(=O)[O-]` [HEXANOATE], the LC retention time in series [1] is 0.91 min. In the case of `O=C(O)C(=O)Cc1c[nH]c2ccccc12` [INDOLE-3-PYRUVATE], the LC retention time in series [2] is 5.17 min. Take `CC1C(=O)Nc2ccccc21` (stereo not drawn) [3-METHYL-2-OXINDOLE]: the LC retention time in series [1] was 0.84 min. The same measure, in the same setting: as for `NCCCNCCCN` [NORSPERMIDINE], the figure is 8.25 min. On the same count and under the same terms, as for `Nc1ccccc1C(=O)[O-]` [ANTHRANILATE], the figure is 1.11 min. Consider `O=P(O)(O)OCC1OC(O)(COP(=O)(O)O)C(O)C1O` (stereo not drawn) [FRUCTOSE BISPHOSPHATE], for which the LC retention time in series [2] was 10.9 min. Turning to `O=C1CCNC(=O)N1` [DIHYDROURACIL], in series [1], the LC retention time was 1.45 min. In the case of `Nc1ccn(C2OC(COP(=O)(O)OP(=O)(O)OP(=O)(O)O)C(O)C2O)c(=O)n1` (stereo not drawn) [CYTIDINE TRIPHOSPHATE], the LC retention time in series [2] was 11.1 min. Still for that read-out and setting: as for `Nc1nc2c(ncn2C2CC(O)C(COP(=O)(O)OP(=O)(O)O)O2)c(=O)[nH]1` (stereo not drawn) [DGDP], the figure is 10.2 min. As to `NC1CCSC1=O` (stereo not drawn) [HOMOCYSTEINE THIOLACTONE], in series [1], the LC retention time was 1.05 min.

For the compound `NCC(=O)CCC(=O)O` [5-AMINOLEVULINATE], in series [2], the LC retention time was 9.28 min. On the same count and under the same terms, next, `Nc1ncnc2c1ncn2C1OC(COP(=O)(O)OP(=O)(O)OCC2OC(O)C(O)C2O)C(O)C1O` (stereo not drawn) [ADENOSINE DIPHOSPHATE RIBOSE]: 9.14 min; `Nc1nc2c(c(=O)[nH]1)N=C(CNc1ccc(C(=O)NC(CCC(=O)O)C(=O)O)cc1)CN2` (stereo not drawn) [DIHYDROFOLATE]: 8.81 min; `C=CC(=O)[O-]` [2-PROPENOATE]: 2.13 min.

For the compound `NCCOP(=O)(O)O` [ETHANOLAMINE PHOSPHATE], the LC retention time in series [2] is 9.23 min. Still for that read-out and setting: next, `Nc1ncnc2c1ncn2C1CC(O)C(COP(=O)(O)OP(=O)(O)OP(=O)(O)O)O1` (stereo not drawn) [DEOXYADENOSINE TRIPHOSPHATE]: 10.2 min; `O=C(O)C=C(CC(=O)O)C(=O)O` [TRANS-ACONITATE]: 10.5 min; `OCC1OC(OCC2OC(OC3(CO)OC(CO)C(O)C3O)C(O)C(O)C2O)C(O)C(O)C1O` (stereo not drawn) [RAFFINOSE]: 9.56 min. Consider `O=c1ccn(C2OC(COP(=O)(O)O)C(O)C2O)c(=O)[nH]1` (stereo not drawn) [URIDINE MONOPHOSPHATE], for which the LC retention time in series [2] is 8.67 min. Same read-out and setting: next, `O=C(O)C(O)CO` (stereo not drawn) [GLYCERATE]: 7.98 min; `O=c1[nH]cnc2c1ncn2C1OC(COP(=O)(O)OP(=O)(O)OP(=O)(O)O)C(O)C1O` (stereo not drawn) [INOSINE TRIPHOSPHATE]: 11 min. With `NC(CCS)C(=O)O` (stereo not drawn) [HOMOCYSTEINE], the LC retention time in series [2] is 9.91 min. Still for that read-out and setting: as for `Nc1nc2c(ncn2C2OC(COP(=O)(O)OP(=O)(O)OC3OC(CO)C(O)C(O)C3O)C(O)C2O)c(=O)[nH]1` (stereo not drawn) [GUANOSINE DIPHOSPHATE MANNOSE], the figure is 10.2 min; as for `O=C(O)C1OC(OP(=O)(O)OP(=O)(O)OCC2OC(n3ccc(=O)[nH]c3=O)C(O)C2O)C(O)C(O)C1O` (stereo not drawn) [URIDINE DIPHOSPHATE GLUCURONIC ACID], 11 min. Same read-out and setting: as for `NC(CS)C(=O)O` (stereo not drawn) [CYSTEINE], the figure is 10.2 min; as for `CC(O)(CC(=O)O)CC(=O)SCCNC(=O)CCNC(=O)C(O)C(C)(C)COP(=O)(O)OP(=O)(O)OCC1OC(n2cnc3c(N)ncnc32)C(O)C1OP(=O)(O)O` (stereo not drawn) [3-HYDROXY-3-METHYLGLUTARYL-COA], 9.96 min; as for `CC(C)=CCCC(C)=CCOP(=O)(O)OP(=O)(O)O` [GERANYL-PP], 8.32 min. Same read-out and setting: next, `O=c1ccn(C2CC(O)C(COP(=O)(O)OP(=O)(O)OP(=O)(O)O)O2)c(=O)[nH]1` (stereo not drawn) [DEOXYURIDINE TRIPHOSPHATE]: 10.5 min; `CC(O)C(=O)O` (stereo not drawn) [LACTATE]: 1.54 min; `NC(C(=O)O)C(O)C(O)C(O)CO` (stereo not drawn) [GLUCOSAMINATE]: 9.91 min. Turning to `OC1COC(O)C(O)C1O` (stereo not drawn) [XYLOSE], in series [2], the LC retention time was 8.34 min. On the same count and under the same terms, next, `NC(CCSSCCC(N)C(=O)O)C(=O)O` (stereo not drawn) [HOMOCYSTINE]: 9.92 min; `C[C@@H](N)C(=O)O` [D-ALANINE]: 5.74 min; `N[C@H](C(=O)O)c1ccc(O)cc1` [4-HYDROXY-L-PHENYLGLYCINE]: 9.02 min. Still for that read-out and setting: next, `NC1C(O)OC(COP(=O)(O)O)C(O)C1O` (stereo not drawn) [GLUCOSAMINE 6-PHOSPHATE]: 10.2 min; `O=C(O)C(O)C(O)C(O)C(O)COP(=O)(O)O` (stereo not drawn) [6-PHOSPHOGLUCONATE]: 10.3 min. Same read-out and setting: as for `Nc1nc2c(ncn2C2OC(COP(=O)(O)OP(=O)(O)O)C(O)C2O)c(=O)[nH]1` (stereo not drawn) [GUANOSINE DIPHOSPHATE], the figure is 10.5 min; as for `Nc1nc2c(ncn2C2OC(COP(=O)(O)OP(=O)(O)OP(=O)(O)O)C(O)C2O)c(=O)[nH]1` (stereo not drawn) [GUANOSINE TRIPHOSPHATE], 11.5 min; as for `NCCOP(=O)(O)OP(=O)(O)OCC1OC(n2ccc(N)nc2=O)C(O)C1O` (stereo not drawn) [CDP-ETHANOLAMINE], 9.33 min. Take `C=C(C)CCOP(=O)(O)OP(=O)(O)O` [ISOPENTENYL PYROPHOSPHATE]: the LC retention time in series [2] is 8.52 min. For the compound `Nc1ccn(C2OC(COP(=O)(O)OP(=O)(O)O)C(O)C2O)c(=O)n1` (stereo not drawn) [CYTIDINE DIPHOSPHATE], the LC retention time in series [2] was 10.2 min.
